Numbers after ± are expanded uncertainties.
Experiment: compressibility factor (dimensionless); xn = mol fraction of the nth substance listed
Conditions: Gas, Burnett expansion method

CF [fluoromethane] + O=C=O
Conditions | compressibility factor
303.15 K, 126.9 kPa, x2 = 0.283 | 0.995 ± 0.0001
303.15 K, 139.3 kPa, x2 = 0.402 | 0.9955 ± 0.0001
303.15 K, 155.9 kPa, x2 = 0.59 | 0.9951 ± 0.0001
303.15 K, 174.7 kPa, x2 = 0.798 | 0.9946 ± 0.0001
303.15 K, 188.9 kPa, x2 = 0.283 | 0.9896 ± 0.0001
303.15 K, 207.3 kPa, x2 = 0.402 | 0.9896 ± 0.0001
303.15 K, 231.9 kPa, x2 = 0.59 | 0.9892 ± 0.0001
303.15 K, 259.9 kPa, x2 = 0.798 | 0.9886 ± 0.0001
303.15 K, 280.7 kPa, x2 = 0.283 | 0.9823 ± 0.0001
303.15 K, 308 kPa, x2 = 0.402 | 0.9821 ± 0.0001
303.15 K, 344.5 kPa, x2 = 0.59 | 0.9815 ± 0.0001
303.15 K, 386 kPa, x2 = 0.798 | 0.9807 ± 0.0001
303.15 K, 415.8 kPa, x2 = 0.283 | 0.9721 ± 0.0001
303.15 K, 456.1 kPa, x2 = 0.402 | 0.9715 ± 0.0001
303.15 K, 510 kPa, x2 = 0.59 | 0.9708 ± 0.0001
303.15 K, 571.5 kPa, x2 = 0.798 | 0.97 ± 0.0001
303.15 K, 613.1 kPa, x2 = 0.283 | 0.9576 ± 0.0001
303.15 K, 672.2 kPa, x2 = 0.402 | 0.9564 ± 0.0001
303.15 K, 751.4 kPa, x2 = 0.59 | 0.9555 ± 0.0001
303.15 K, 842 kPa, x2 = 0.798 | 0.9547 ± 0.0001
303.15 K, 897.8 kPa, x2 = 0.283 | 0.9368 ± 0.0001
303.15 K, 983.5 kPa, x2 = 0.402 | 0.9349 ± 0.0001
303.15 K, 1099.1 kPa, x2 = 0.59 | 0.9337 ± 0.0001
303.15 K, 1231.1 kPa, x2 = 0.798 | 0.9326 ± 0.0001
303.15 K, 1300.8 kPa, x2 = 0.283 | 0.9066 ± 0.0001
303.15 K, 1423.2 kPa, x2 = 0.402 | 0.9038 ± 0.0001
303.15 K, 1589.6 kPa, x2 = 0.59 | 0.9021 ± 0.0001
303.15 K, 1779.6 kPa, x2 = 0.798 | 0.9006 ± 0.0001
303.15 K, 1854.5 kPa, x2 = 0.283 | 0.8635 ± 0.0001
303.15 K, 2025.1 kPa, x2 = 0.402 | 0.8591 ± 0.0001
303.15 K, 2259.3 kPa, x2 = 0.59 | 0.8566 ± 0.0001
303.15 K, 2527 kPa, x2 = 0.798 | 0.8543 ± 0.0001
303.15 K, 2578.9 kPa, x2 = 0.283 | 0.8022 ± 0.0001
303.15 K, 2808.4 kPa, x2 = 0.402 | 0.7959 ± 0.0001
303.15 K, 3127.5 kPa, x2 = 0.59 | 0.7921 ± 0.0001
303.15 K, 3455.9 kPa, x2 = 0.283 | 0.7182 ± 0.0001
303.15 K, 3491.8 kPa, x2 = 0.798 | 0.7886 ± 0.0001
303.15 K, 3745.5 kPa, x2 = 0.402 | 0.7091 ± 0.0001
303.15 K, 4156.5 kPa, x2 = 0.59 | 0.7033 ± 0.0001
303.15 K, 4628.3 kPa, x2 = 0.798 | 0.6983 ± 0.0001
313.15 K, 128.9 kPa, x2 = 0.206 | 0.9928 ± 0.0001
313.15 K, 139.2 kPa, x2 = 0.778 | 1 ± 0.0001
313.15 K, 156.2 kPa, x2 = 0.593 | 0.9925 ± 0.0001
313.15 K, 175 kPa, x2 = 0.408 | 0.9921 ± 0.0001
313.15 K, 192.3 kPa, x2 = 0.206 | 0.9894 ± 0.0001
313.15 K, 207.3 kPa, x2 = 0.778 | 0.9946 ± 0.0001
313.15 K, 233 kPa, x2 = 0.593 | 0.989 ± 0.0001
313.15 K, 260.7 kPa, x2 = 0.408 | 0.9874 ± 0.0001
313.15 K, 286.2 kPa, x2 = 0.206 | 0.9837 ± 0.0001
313.15 K, 308.2 kPa, x2 = 0.778 | 0.9881 ± 0.0001
313.15 K, 346.7 kPa, x2 = 0.593 | 0.9829 ± 0.0001
313.15 K, 387.2 kPa, x2 = 0.408 | 0.9799 ± 0.0001
313.15 K, 424.5 kPa, x2 = 0.206 | 0.9746 ± 0.0001
313.15 K, 457.5 kPa, x2 = 0.778 | 0.9798 ± 0.0001
313.15 K, 514.3 kPa, x2 = 0.593 | 0.974 ± 0.0001
313.15 K, 573.2 kPa, x2 = 0.408 | 0.9689 ± 0.0001
313.15 K, 626.8 kPa, x2 = 0.206 | 0.9613 ± 0.0001
313.15 K, 676.8 kPa, x2 = 0.778 | 0.9683 ± 0.0001
313.15 K, 759.4 kPa, x2 = 0.593 | 0.9608 ± 0.0001
313.15 K, 843.8 kPa, x2 = 0.408 | 0.9529 ± 0.0001
313.15 K, 919.1 kPa, x2 = 0.206 | 0.9417 ± 0.0001
313.15 K, 996 kPa, x2 = 0.778 | 0.9519 ± 0.0001
313.15 K, 1113.9 kPa, x2 = 0.593 | 0.9415 ± 0.0001
313.15 K, 1231.8 kPa, x2 = 0.408 | 0.9293 ± 0.0001
313.15 K, 1334.2 kPa, x2 = 0.206 | 0.9132 ± 0.0001
313.15 K, 1453.8 kPa, x2 = 0.778 | 0.9282 ± 0.0001
313.15 K, 1617 kPa, x2 = 0.593 | 0.913 ± 0.0001
313.15 K, 1775.9 kPa, x2 = 0.408 | 0.895 ± 0.0001
313.15 K, 1907.6 kPa, x2 = 0.206 | 0.8722 ± 0.0001
313.15 K, 2096.6 kPa, x2 = 0.778 | 0.8943 ± 0.0001
313.15 K, 2311.9 kPa, x2 = 0.593 | 0.8721 ± 0.0001
313.15 K, 2512.5 kPa, x2 = 0.408 | 0.846 ± 0.0001
313.15 K, 2665.8 kPa, x2 = 0.206 | 0.8143 ± 0.0001
313.15 K, 2967.7 kPa, x2 = 0.778 | 0.8457 ± 0.0001
313.15 K, 3229.5 kPa, x2 = 0.593 | 0.8138 ± 0.0001
313.15 K, 3455.2 kPa, x2 = 0.408 | 0.7772 ± 0.0001
313.15 K, 3600.8 kPa, x2 = 0.206 | 0.7348 ± 0.0001
313.15 K, 4083.3 kPa, x2 = 0.778 | 0.7773 ± 0.0001
313.15 K, 4357.3 kPa, x2 = 0.593 | 0.7335 ± 0.0001
313.15 K, 4556.4 kPa, x2 = 0.408 | 0.6847 ± 0.0001
313.15 K, 4622.8 kPa, x2 = 0.206 | 0.6302 ± 0.0001
313.15 K, 5382.3 kPa, x2 = 0.778 | 0.6845 ± 0.0001
313.15 K, 5581 kPa, x2 = 0.593 | 0.6277 ± 0.0001
313.15 K, 5645.6 kPa, x2 = 0.408 | 0.5668 ± 0.0001
323.15 K, 133.2 kPa, x2 = 0.378 | 0.9948 ± 0.0001
323.15 K, 137 kPa, x2 = 0.791 | 0.995 ± 0.0001
323.15 K, 142.6 kPa, x2 = 0.619 | 0.9967 ± 0.0001
323.15 K, 156.6 kPa, x2 = 0.189 | 0.9918 ± 0.0001
323.15 K, 198.7 kPa, x2 = 0.378 | 0.9914 ± 0.0001
323.15 K, 204.4 kPa, x2 = 0.791 | 0.9921 ± 0.0001
323.15 K, 212.6 kPa, x2 = 0.619 | 0.9926 ± 0.0001
323.15 K, 233.4 kPa, x2 = 0.189 | 0.9875 ± 0.0001
323.15 K, 295.9 kPa, x2 = 0.378 | 0.986 ± 0.0001
323.15 K, 304.7 kPa, x2 = 0.791 | 0.9877 ± 0.0001
323.15 K, 316.4 kPa, x2 = 0.619 | 0.9871 ± 0.0001
323.15 K, 347.1 kPa, x2 = 0.189 | 0.9809 ± 0.0001
323.15 K, 439.4 kPa, x2 = 0.378 | 0.9783 ± 0.0001
323.15 K, 453 kPa, x2 = 0.791 | 0.9812 ± 0.0001
323.15 K, 469.9 kPa, x2 = 0.619 | 0.9793 ± 0.0001
323.15 K, 514.3 kPa, x2 = 0.189 | 0.971 ± 0.0001
323.15 K, 650.1 kPa, x2 = 0.378 | 0.967 ± 0.0001
323.15 K, 671.5 kPa, x2 = 0.791 | 0.9715 ± 0.0001
323.15 K, 695.4 kPa, x2 = 0.619 | 0.9682 ± 0.0001
323.15 K, 758.3 kPa, x2 = 0.189 | 0.9564 ± 0.0001
323.15 K, 956.3 kPa, x2 = 0.378 | 0.9502 ± 0.0001
323.15 K, 990.6 kPa, x2 = 0.791 | 0.9574 ± 0.0001

Source: the NIST ThermoML archive (doi:10.1021/je025630q)
